Results on 31 compounds are retold here after patent US11407771B2 (priority 2018, dated 2022).

Bounds are passed on as bounds.

For the first assay, the target named is MAPK13 (Homo sapiens (Human), UniProt O15264). The following applies: read-out: MAPK13 IC50.
MAPK13, sequence (O15264 whole entry): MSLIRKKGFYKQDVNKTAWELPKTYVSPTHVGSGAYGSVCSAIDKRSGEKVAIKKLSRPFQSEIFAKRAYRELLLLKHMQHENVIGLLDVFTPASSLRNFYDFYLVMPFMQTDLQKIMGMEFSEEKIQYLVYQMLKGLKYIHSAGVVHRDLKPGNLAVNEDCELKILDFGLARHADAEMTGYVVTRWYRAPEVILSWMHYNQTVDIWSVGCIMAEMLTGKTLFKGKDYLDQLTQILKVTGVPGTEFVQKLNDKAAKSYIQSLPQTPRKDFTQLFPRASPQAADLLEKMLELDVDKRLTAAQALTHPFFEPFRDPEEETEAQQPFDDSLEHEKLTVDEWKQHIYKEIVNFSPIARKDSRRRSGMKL
For the compound `Cc1ccc(-n2nc(C(C)(C)C)cc2NC(=O)Nc2ncc(CCc3ccnc(NC(=O)C4CCC4)c3)s2)cc1` [Compound 332, Cyclobutanecarboxylic acid [4-(2-{2-[3-(5-tert-butyl-2-p-tolyl-2H-pyrazol-3-yl)-ureido]-thiazol-5-yl}-ethyl)-pyridin-2-yl]-amide], the IC50 worked out at 18 nM.
Regarding `CC(=O)Nc1cc(Oc2ccc(NC(=O)Nc3cc(C(C)(C)C)on3)c(F)c2)ccn1` [Compound 394, N-(4-{4-[3-(5-tert-Butyl-isoxazol-3-yl)-ureido]-3-fluoro-phenoxy}-pyridin-2-yl)-acetamide], the IC50 is 9 nM.

Still in this assay, the particulars now being: read-out: MAPK13 inhibition.
As to `CCOC(=O)Nc1cc(CCc2cnc(NC(=O)Nc3cc(C(F)(F)F)ccc3F)s2)ccn1` [Compound 357, [4-(2-{2-[3-(2-Fluoro-5-trifluoromethyl-phenyl)-ureido]-thiazol-5yl}-ethyl)-pyridin-2-yl]-carbamic acid ethyl ester], the IC50 was above 1000 nM.
As for `COC(=O)Nc1cc(Oc2ccc(NC(=O)Nc3cc(C4(C)COC4)nn3-c3ccc(C)cc3)cc2)ccn1` [Compound 261, [4-(4-{3-[5-(3-Methyl-oxetan-3-yl)-2-p-tolyl-2H-pyrazol-3-yl]-ureido}-phenoxy)-pyridin-2-yl]-carbainic acid methyl ester], the IC50 was below 250 nM.
Still for that read-out and setting: with `CC(=O)Nc1cc(Oc2ccc(NC(=O)Nc3cc(C4CC4)ccc3Cl)c(F)c2)ccn1` [Compound 423, N-(4-{4-[3-(2-Chloro-5-cyclopropyl-phenyl)-ureido]-3-fluoro-phenoxy}-pyridin-2-yl)-acetamide] the figure was below 250 nM; with `CC(=O)Nc1cc(CCc2ccc(NC(=O)Nc3cc(C(C)(C)C)nn3CC3CC3)c(F)c2)ccn1` [Compound 370, N-[4-(2-{4-[3-(5-tert-Butyl-2-cyclopropylmethyl-2H-pyrazol-3-yl)-ureido]-3-fluoro-phenyl}-ethyl)-pyridin-2-yl]-acetamide], above 1000 nM; with `Cc1ccc(-n2nc(C(C)(C)C)cc2NC(=O)Nc2ccc(Oc3ccncc3C)cc2F)cc1` [Compound 300, 1-(5-tert-Butyl-2-p-tolyl-2H-pyrazol-3-yl)-3-[2-fluoro-4-(3-methyl-pyridin-4-yloxy)-phenyl]-urea], below 250 nM.
On the same count and under the same terms, next, `CC(C)(C)c1cc(NC(=O)Nc2ncc(CCc3ccnc(NC(=O)C4CC4)c3)s2)no1` [Compound 369, Cyclopropanecarboxylic acid [4-(2-{2-[3-(5-tert-butyl-isoxazol-3-yl)-ureido]-thiazol-5-yl}-ethyl)-pyridin-2-yl]-amide]: below 250 nM.
Still for that read-out and setting: with `Cc1ccc(-n2nc(C(C)(C)C)cc2NC(=O)Nc2ncc(CCc3ccnc(NC(=O)C4CCC4)c3)s2)cc1` [Compound 332, Cyclobutanecarboxylic acid [4-(2-{2-[3-(5-tert-butyl-2-p-tolyl-2H-pyrazol-3-yl)-ureido]-thiazol-5-yl}-ethyl)-pyridin-2-yl]-amide] the figure was below 250 nM; with `COC(=O)Nc1cc(Oc2ccc(NC(=O)Nc3cc(C4(C)CSC4)nn3-c3ccc(C)cc3)cc2)ccn1` [Compound 262, [4-(4-{3-[5-(3-Methyl-thietan-3-yl)-2-p-tolyl-2H-pyrazol-3-yl]-ureido}-phenoxy)-pyridin-2-yl]-carbamic acid methyl ester], below 250 nM; with `CC(=O)Nc1cc(COc2ccc(NC(=O)Nc3cc(C(C)(C)C)nn3-c3ccc(C)cc3)c(F)c2)ccn1` [Compound 402, N-(4-{4-[3-(5-tert-Butyl-2-p-tolyl-2H-pyrazol-3-yl)-ureido]-3-fluoro-phenoxymethyl}-pyridin-2-yl)-acetamide], below 250 nM.
`CCNC(=O)Nc1cc(CCc2cnc(NC(=O)Nc3cc(C(C)(C)C)nn3CC3CC3)s2)ccn1` [Compound 340, 1-[4-(2-{2-[3-(5-tert-Butyl-2-cyclopropylmethyl-2H-pyrazol-3-yl)-uredo]-thiazol-5-yl}-ethyl)-pyridin-2-yl]-3-ethyl-urea]: the IC50 is below 250 nM.
Consider `Cn1nc(C(C)(C)C)cc1NC(=O)Nc1ncc(CCc2ccnc(NC(=O)C3CCC3)c2)s1` [Compound 353, Cyclobutanecarboxylic acid [4-(2-{2-[3-(5-tert-butyl-2-methyl-2H-pyrazol-3-yl)-ureido]-thiazol-5-yl}-ethyl)-pyridin-2-yl]-amide], for which the IC50 was below 250 nM.
Turning to `CCNC(=O)Nc1cc(CCc2cnc(NC(=O)Nc3cc(C(C)(C)C)nn3C)s2)ccn1` [Compound 352, 1-[4-(2-{2-[3-(5-tert-Butyl-2-methyl-2H-pyrazol-3-yl)-ureido]-thiazol-5-yl}ethyl)-pyridin-2-yl]-3-ethyl-urea], the IC50 was below 250 nM.
On to `CC(C)(C)c1ccc(Cl)c(NC(=O)Nc2ccc(Oc3ccnc(NC(=O)CO)c3)cc2F)c1` [Compound 426, N-(4-{4-[3-(5-tert-Butyl-2-chloro-phenyl)-ureido]-3-fluoro-phenoxy}-pyridin-2-yl)-2-hydroxy-acetamide], for which the IC50 was below 250 nM.
In the case of `Cn1nc(C(C)(C)C)cc1NC(=O)Nc1ncc(CCc2ccnc(NC(=O)C3CC3)c2)s1` [Compound 345, Cyclopropanecarboxylic acid [4-(2-{2-[3-(5-tert-butyl-2-methyl-2H-pyrazol-3-yl)-ureido]-thiazol-5-yl}-ethyl)-pyridin-2-yl]-amide], the IC50 is below 250 nM.
For the compound `CC(=O)Nc1cc(Oc2ccc(NC(=O)Nc3cc([Si](C)(C)C)ccc3F)c(F)c2)ccn1` [Compound 399, N-(4-{3-Fluoro-4-[3-(2-fluoro-5-trimethylsilanyl-phenyl)-ureido]-phenoxy}-pyridin-2-yl)-acetamide], the IC50 is below 250 nM.
Turning to `CC(C)(C)c1cc(NC(=O)Nc2ncc(CCc3ccnc(NC(=O)C4CC4)c3)s2)[nH]n1` [Compound 368, Cyclopropanecarboxylic acid [4-(2-{2-[3-(5-tert-butyl-2H-pyrazol-3-yl)-ureido]-thiazol-5-yl}-ethyl)-pyridin-2-yl]-amide], the IC50 was below 250 nM.
As for `COCC(=O)Nc1cc(Oc2ccc(NC(=O)Nc3cc(C4(C)COC4)nn3-c3ccc(C)cc3)cc2)ccn1` [Compound 259, 2-Methoxy-N-[4-(4-{3-[5-(3-methyl-oxetan-3-yl)-2-p-tolyl-2H-pyrazol-3-yl]-ureido}-phenoxy)-pyridin-2-yl]-acetamide], the IC50 is below 250 nM.
As for `CC(C)(C)c1cc(NC(=O)Nc2ncc(CCc3ccnc(NC(=O)C4CC4)c3)s2)n(CC2CC2)n1` [Compound 334, Cyclopropanecarboxylic acid [4-(2-{2-[3-(5-tert-butyl-2-cyclopropylmethyl-2H-pyrazol-3-yl)-ureido]-thiazol-5-yl}-ethyl)-pyridin-2-yl]-amide], the IC50 was below 250 nM.
Take `CC(=O)Nc1cc(CCc2cnc(NC(=O)Nc3cc(C(C)(C)C)nn3CC3CC3)s2)ccn1` [Compound 325, N-[4-(2-{2-[3-(5-tert-Butyl-2-cyclopropylmethyl-2H-pyrazol-3-yl)-ureido]-thiazol-5-yl}-ethyl)-pyridin-2-yl]-acetamide]: the IC50 is below 250 nM.
Take `CC(=O)Nc1cc(CCc2ccc(NC(=O)Nc3cc(C(C)(C)C)nn3-c3ccc(C)cc3)c(F)c2)ccn1` [Compound 329, N-[4-(2-{4-[3-(5-tert-Butyl-2-p-tolyl-2H-pyrozol-3-yl)-ureido]-3-fluoro-phenyl}-ethyl)-pyridin-2-yl]-acetamide]: the IC50 is below 250 nM.
Regarding `CC(=O)Nc1cc(CCc2ccc(NC(=O)Nc3cc(C(C)(C)C)nn3C(C)C)c(F)c2)ccn1` [Compound 371, N-[4-(2-{4-[3-(5-tert-Butyl-2-isopropyl-2H-pyrazol-3-yl)-ureido]-3-fluoro-phenyl}-ethyl)-pyridin-2-yl]-acetamide], the IC50 is above 1000 nM.
Still for that read-out and setting: next, `CC(=O)Nc1cc(CCc2ccc(NC(=O)Nc3cc(C(F)(F)F)ccc3F)c(F)c2)ccn1` [Compound 360, N-[4-(2-{3-Fluoro-4-[3-(2-fluoro-5-trifluoromethyl-phenyl)-ureido]-phenyl}-ethyl)-pyridin-2-yl]-acetamide]: above 1000 nM.
`CC(=O)Nc1cc(Oc2ccc(NC(=O)Nc3cc(C(C)(C)C)on3)c(F)c2)ccn1` [Compound 394, N-(4-{4-[3-(5-tert-Butyl-isoxazol-3-yl)-ureido]-3-fluoro-phenoxy}-pyridin-2-yl)-acetamide]: the IC50 was below 250 nM.
Still for that read-out and setting: with `CCOC(=O)Nc1cc(CCc2cnc(NC(=O)Nc3cc(C(C)(C)C)nn3C)s2)ccn1` [Compound 335, [4-(2-{2-[3-(5-tert-Butyl-2-methyl-2H-pyrazol-3-yl)-ureido]-thiazol-5-yl}-ethyl)-pyridin-2-yl]-carbamic acid ethyl ester] the figure was below 250 nM; with `CCOC(=O)Nc1cc(CCc2cnc(NC(=O)Nc3cc(C(C)(C)C)on3)s2)ccn1` [Compound 364, [4-(2-{2-[3-(5-tert-Butyl-isoxazol-3-yl)-ureido]-thiazol-5-yl}-ethyl)-pyridin-2-yl]-carbamic acid ethyl ester], below 250 nM.
Same read-out and setting: next, `COCC(=O)Nc1cc(Oc2ccc(NC(=O)Nc3cc(C4(C)CSC4)nn3-c3ccc(C)cc3)cc2)ccn1` [Compound 260, 2-Methoxy-N-[4-(4-{3-[5-(3-methyl-thietan-3-yl)-2-p-tolyl-2H-pyrazol-3-yl]-ureido}-phenoxy)-pyridin-2-yl]-acetamide]: below 250 nM; `COCC(=O)Nc1cc(CCc2cnc(NC(=O)Nc3cc(C(C)(C)C)nn3C)s2)ccn1` [Compound 350, N-[4-(2-{2-[3-(5-tert-Butyl-2-methyl-2H-pyrazol-3-yl)-ureido]-thiazol-5-yl}-ethyl)-pyridin-2-yl]-2-methoxy-acetamide]: below 250 nM.
As for `CC(=O)Nc1cc(Oc2ccc(NC(=O)Nc3cc(C(C)(C)C)nn3C(C)C)c(F)c2)ccn1` [Compound 392, N-(4-{4-[3-(5-tert-Butyl-2-isopropyl-2H-pyrazol-3-yl)-ureido]-3-fluoro-phenoxy}-pyridin-2-yl)-acetamide], the IC50 was below 250 nM.
With `COCCC(=O)Nc1cc(Oc2ccc(NC(=O)Nc3cc(C(C)(C)C)ccc3Cl)c(F)c2)ccn1` [Compound 427, N-(4-{4-[3-(5-tert-Butyl-2-chloro-phenyl)-ureido]-3-fluoro-phenoxy}-pyridin-2-yl)-3-methoxy-propionamide], the IC50 is below 250 nM.
For the compound `COCCC(=O)Nc1cc(CCc2cnc(NC(=O)Nc3cc(C(C)(C)C)nn3CC3CC3)s2)ccn1` [Compound 342, N-[4-(2-{2-[3-(5-tert-Butyl-2-cyclopropylmethyl-2H-pyrazol-3-yl)-ureido]-thiazol-5-yl}-ethyl)-pyridin-2-yl]-3-methoxy-propionamide], the IC50 is below 250 nM.
As for `COC(=O)Nc1cc(CCc2ccc(NC(=O)Nc3cc(C(C)(C)C)nn3-c3ccc(C)cc3)c(F)c2)ccn1` [Compound 315, [4-(2-{4-[3-(5-tert-Butyl-2-p-tolyl-2H-pyrazol-3-yl)-ureido]-3-fluoro-phenyl}-ethyl)-pyridin-2-yl]-carbamic acid methyl ester], the IC50 is above 1000 nM.
